Source: PubChem BioAssay (NCI)
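Method: 48-hour compound exposure of cells in 96-well plates, five concentrations, linear interpolation of endpoints. TGI is the concentration that stops growth completely.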

Assays:
Test in all cases: growth of human tumour cells (NCI), 48 h
SW-620 colon = system: SW-620 colon
RPMI-8226 leukemia = system: RPMI-8226 leukemia
NCI-H460 lung = system: NCI-H460 lung
MOLT-4 leukemia = system: MOLT-4 leukemia
SK-MEL-2 melanoma = system: SK-MEL-2 melanoma
COLO 205 colon = system: COLO 205 colon
OVCAR-5 ovarian = system: OVCAR-5 ovarian
SF-295 CNS = system: SF-295 CNS
KM12 colon = system: KM12 colon
SN12C renal = system: SN12C renal
CCRF-CEM leukemia = system: CCRF-CEM leukemia
NCI-H23 lung = system: NCI-H23 lung
A498 renal = system: A498 renal
NCI-H226 lung = system: NCI-H226 lung
SK-OV-3 ovarian = system: SK-OV-3 ovarian
TK-10 renal = system: TK-10 renal
M19-MEL melanoma = system: M19-MEL melanoma
RXF 393 renal = system: RXF 393 renal
UACC-257 melanoma = system: UACC-257 melanoma
KM20L2 colon = system: KM20L2 colon
UO-31 renal = system: UO-31 renal
NCI-H522 lung = system: NCI-H522 lung
LXFL 529 NSCLC = system: LXFL 529 NSCLC
XF 498 CNS = system: XF 498 CNS
OVCAR-4 ovarian = system: OVCAR-4 ovarian
SNB-19 CNS = system: SNB-19 CNS
HCT-15 colon = system: HCT-15 colon
IGROV1 ovarian = system: IGROV1 ovarian
SNB-78 CNS = system: SNB-78 CNS
EKVX NSCLC = system: EKVX NSCLC
DLD-1 colon = system: DLD-1 colon
SNB-75 CNS = system: SNB-75 CNS
SF-539 CNS = system: SF-539 CNS
K-562 leukemia = system: K-562 leukemia
UACC-62 melanoma = system: UACC-62 melanoma
U251 CNS = system: U251 CNS
SF-268 CNS = system: SF-268 CNS
DMS 114 small cell lung = system: DMS 114 small cell lung
DMS 273 small cell lung = system: DMS 273 small cell lung
HOP-92 NSCLC = system: HOP-92 NSCLC
HL-60(TB) leukemia = system: HL-60(TB) leukemia
M14 melanoma = system: M14 melanoma
OVCAR-3 ovarian = system: OVCAR-3 ovarian
SR leukemia = system: SR leukemia
HCT-116 colon = system: HCT-116 colon
HT29 colon = system: HT29 colon
LOX IMVI melanoma = system: LOX IMVI melanoma
HOP-62 NSCLC = system: HOP-62 NSCLC
MALME-3M melanoma = system: MALME-3M melanoma
CAKI-1 renal = system: CAKI-1 renal
HCC-2998 colon = system: HCC-2998 colon
A549 NSCLC = system: A549 NSCLC
SK-MEL-5 melanoma = system: SK-MEL-5 melanoma
SK-MEL-28 melanoma = system: SK-MEL-28 melanoma
786-0 renal = system: 786-0 renal
OVCAR-8 ovarian = system: OVCAR-8 ovarian
ACHN renal = system: ACHN renal
RXF-631 renal = system: RXF-631 renal
HOP-18 NSCLC = system: HOP-18 NSCLC

Measured: TGI

C1=C(c2ccccc2)SC(N2CCCCC2)S1 (stereo unspecified)
not listed: CAKI-1 renal | HCC-2998 colon | A549 NSCLC | SK-MEL-5 melanoma | SK-MEL-28 melanoma | 786-0 renal | OVCAR-8 ovarian | ACHN renal | RXF-631 renal | HOP-18 NSCLC
> 100 µM: all other assays above

COc1ccc2nccc(C3=CCC4CCN(C(=O)c5ccccc5)C3C4)c2c1 (stereo unspecified)
not listed: OVCAR-5 ovarian | NCI-H226 lung | KM20L2 colon | SR leukemia | ACHN renal | RXF-631 renal | HOP-18 NSCLC
> 100 µM: all other assays above

Cc1c(OC(C)C(=O)O)ccc2c(-c3ccccc3)cc(=O)oc12 (stereo unspecified)
not listed: SK-MEL-2 melanoma | OVCAR-5 ovarian | HCT-15 colon | DMS 273 small cell lung
> 100 µM: all other assays above
